Where two headings read alike, the source gives them in different places.

Series [1] concerns the target T1, Aβ40 aggregates (Homo sapiens, UniProt P05067).
T1 construct: Synthetic amyloid-b protein (1-40) was purchased from rPeptide; purchased rPeptide (Bogart, Ga.)
Put plainly: In vitro Aβ aggregates binding constant measurement. The note with it: Aβ40 aggregates in PBS, fluorescence intensity, nonlinear one-site regression; read-out: Binding constant (Kd) towards Aβ aggregates. The procedure:
[…] The Kd binding curve was generated by software Prism 3.0 with nonlinear one-site binding regression.
Binding constant (Kd) of CRANAD-2 towards Aβ aggregates was measured by fluorescence intensity (F.I.) with various concentrations of the prob.

Series [2] deals with senile plaques. Put plainly: Ex vivo histological correlation. It counts as in vivo, mice. Particulars: 10 mg/kg i.v. The procedure: 19 month-old mouse was injected CRANAD-2 (10.0 mg/kg), and was sacrified after perfusion with 4% formaldehyde. The brain was taken and embedded in OCT. For histology, the brain was sliced into 25μ slices, and co-stained with thioflavin S as described above. To obtain ex vivo confirmation of the probe binding, mice at different ages were i.v injected with 10 mg/kg of CRANAD-2 probe, perfused and scarified at 1 h after injection.

Series [3] concerns the target T1, Aβ40 aggregates. Particulars: reported values used for comparison; read-out: Kd towards Aβ aggregates (literature); cited from earlier work.
The test system of series [4] is Aβ plaques. Put plainly: AD tissue staining of APP-PS1 brain sections. Particulars: 25 micron sections, 12-month old APP-PS1 mice.
Excerpt: The inventors conducted tissue staining with 25 micron brain sections from 12-month old APP-PS1 mice by all the compounds listed in FIG. 12.
The target of series [5] is T1, Aβ40 aggregates. Put plainly: Aβ aggregates detection in solution by fluorescence spectrum. The format is binding. Particulars: 250 nM compound, 250 nM Aβ40 aggregates, PBS. The procedure:
They then incubated 250 nM of the compounds with 250 nM of Aβ40 aggregates (calculation based on monomer) in PBS for one minute, and then measured the fluorescence spectra of the solutions.

Series [6] is described as follows: Fluorescence emission properties of the probes. It counts as physicochemical. Particulars: probe alone, methanol (FIG. 2). The procedure:
Reagents used for synthesis were purchased from Aldrich without further purification. Column chromatography was performed on silica gel (SiliCycle Inc., 60 Å, […]) slurry packed into glass columns. Thioflavin S was purchased from Aldrich. Synthetic amyloid-b protein (1-40) was purchased from rPeptide (Bogart, Ga., 30622) and aggregates for in vitro studies were generated followed the reported procedure. BSA was purchased from Sigma, and human serum was obtained from Invitrogen (type AB). ^1H and ^13C NMR spectra were recorded at 400 MHz and 100 MHz respectively, and are reported in ppm downfield from tetramethylsilane. Fluorescence studies were carried out with F-4500 Fluorescense Spectrophotometer. Fluorescence quantum yields were determined using aqueous solution of Cy5.5-maleimide as a standard (y=0.23). High resolution mass spectra were obtained at the Harvard University, Department of Chemistry Instrumentation Facility. Transgenic Tg2576 mice {45} and littermates were purchased from Taconic Farm, Balb/c mice for BBB penetrating test were obtained from Jackson Laboratory, and the experiment procedure was approved by Massachusetts General Hospital. In vivo imaging was recorded on Kodak Imaging Station 2000MM.
Furthermore, by comparing the fluorescence intensity in methanol, the quantum yield of CRANAD-2 was significant higher than that of curcumin (FIG. 2). […] Additionally, these modifications produced a large stokes shift and improved quantum yield of CRANAD-2. The synthesized compound produced the longest emission and the largest stokes shift among the existing probes for senile plaque detection {3}.

The conditions of series [7]: cited from earlier work.

T1 sequence (P05067 672-711 limits assumed): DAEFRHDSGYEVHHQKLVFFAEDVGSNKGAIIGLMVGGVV

As usually defined, the Kd is the equilibrium constant for the complex coming apart. For `COc1cc(C=CC2=CC(C=Cc3ccc(O)c(OC)c3)=[O+][B-](F)(F)O2)ccc1O` [CRANAD-1, 1,7-Bis-(4-hydroxy-3-methoxyphenyl)-hepta-1,6-diene-2′,2′-difluoro-1′,3′-dioxaboryl-3,5-dione], in series [1], the Kd is 1 nM. Further, the “Labelling of senile plaques ex vivo after i.v. injection” value is “could not find obvious senile plaques” in series [2] (11-month old transgenic and wild-type mice, thioflavin S staining); “can penetrate BBB and label senile plaques in vivo” in series [2] (19-month old transgenic mice).
Turning to `N#CC(C#N)=Cc1ccc(-c2ccc(-c3ccc(O)cc3)s2)s1` [NIAD-4], the Kd in series [3] was 10 nM.
`[11CH3]Nc1ccc(-c2nc3ccc(O)cc3s2)cc1` [PiB]: in series [4], the “Staining of plaques in brain sections” value is on record as “stained the plaques brightly”.
As to `Cc1ccc2c(c1)sc(-c1ccc(N(C)C)cc1)[n+]2C.[Cl-]` [Thioflavin T], the “Staining of plaques in brain sections” value in series [4] is “stained the plaques brightly”. Besides, the “FI amplification with Aβ40 aggregates” value in series [5] is given as 72 fold. The “Fluorescence intensity change with Aβ40 aggregates” value in series [5] (one minute) was “intensity increases”.
`COc1cc(C=CC(=O)CC(=O)C=Cc2ccc(O)c(OC)c2)ccc1O` [curcumin, 1,7-bis(4-hydroxy-3-methoxyphenyl)-1,6-heptadiene-3,5-dione]: the “Staining of plaques in brain sections” value in series [4] is given as “stained the plaques brightly”. Also, in series [5] (one minute), the “Fluorescence intensity change with Aβ40 aggregates” value is given as “intensity increases” and the “Wavelength shift with Aβ40 aggregates” value is reported as “wavelength blue-shifts”. In addition, in series [6], the Stokes shift was found to be 50 nm, the “λmax(em)” value turned out to be 560 nm and the “λmax(ex)” value is 510 nm. Also, in series [7], the “log P (literature)” value was below 2.

Values taken from patent publication US10149644B2, “Curcumin derivatives for amyloid-β plaque imaging” (The General Hospital Corporation, priority 2008, dated 2018).
